Like-named read-outs stand apart in the source and are kept apart here.
Tests used:
[1] = target: T1, human 5-HT1A receptor (Homo sapiens, UniProt P08908); test: 5-HT1A receptor binding ([3H]8-OH-DPAT, 5-HT1A.CHO cell membranes); conditions: for inhibition at 0.01 µM / inhibition at 1 µM: 0.5 h; for inhibition at 0.01 µM: read-out: 5-HT1A % @10 nM; for inhibition at 1 µM: read-out: 5-HT1A % @1000 nM
T1 construct: expressed in transfected cells
T1 sequence (P08908 1-422): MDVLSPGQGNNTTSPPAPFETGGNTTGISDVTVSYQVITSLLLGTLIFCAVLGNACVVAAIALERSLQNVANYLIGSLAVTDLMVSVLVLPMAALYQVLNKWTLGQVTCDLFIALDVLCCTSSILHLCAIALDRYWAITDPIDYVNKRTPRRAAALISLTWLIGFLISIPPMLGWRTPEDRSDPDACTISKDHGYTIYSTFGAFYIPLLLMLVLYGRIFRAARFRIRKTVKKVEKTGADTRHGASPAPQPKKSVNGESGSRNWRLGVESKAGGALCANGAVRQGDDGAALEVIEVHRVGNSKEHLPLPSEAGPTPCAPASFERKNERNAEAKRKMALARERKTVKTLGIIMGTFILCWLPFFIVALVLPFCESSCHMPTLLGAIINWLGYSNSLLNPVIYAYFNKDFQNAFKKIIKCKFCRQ
Protocol: (§1) The PCR cloning of the human 5-HT1A receptor subtype from a human genomic library has been described previously Chanda et al., Mol. Pharmacol., 43:516 (1993). A stable Chinese hamster ovary cell line expressing the human 5-HT1A receptor subtype (5-HT1A.CHO cells) was employed throughout this study. Cells were maintained in DMEM supplemented with 10% foetal calf serum, non-essential amino acids and penicillin/streptomycin.
Cells were grown to 95-100% confluency as a monolayer before membranes were harvested for binding studies. Cells were gently scraped from the culture plates, transferred to centrifuge tubes, and washed twice by centrifugation (2000 rpm for 10 min., 4° C.) in buffer (50 mM Tris; pH 7.5). The resulting pellets were aliquoted and placed at -80° C. On the day of assay, the cells were thawed on ice, and resuspended in buffer. Studies were conducted using [^3 H]8-OH-DPAT as the radioligand. The binding assay was performed in 96 well microtiter plates in a final total volume of 250 μL of buffer. Competition experiments were performed by using 7 concentrations of unlabelled drug and a final ligand concentration of 1.5 nM . Non-specific binding was determined in the presence of 10 μM 5HT. Saturation analysis was conducted by using [^3 H]8-OH-DPAT at concentrations ranging from 0.3-30 nM. Following a 30 minute incubation at room temperature, the reaction was terminated by the addition of ice cold buffer and rapid filtration using a M-96 Brandel Cell Harvester (Gaithersburg, Md.) through a GF/B filter presoaked for 30 minutes in 0.5% polyethyleneimine.

[2] = target: T2, serotonin transporter (Rattus norvegicus, UniProt P31652); test: serotonin transporter (ST) affinity, 3H-paroxetine binding in frontal cortical membranes; parameters: species or system male Sprague-Dawley rats
T2 construct: frontal cortical membranes prepared from male Sprague-Dawley rats; from tissue; host or cells: frontal cortical membranes of male Sprague-Dawley rats
T2 sequence (P31652 whole entry): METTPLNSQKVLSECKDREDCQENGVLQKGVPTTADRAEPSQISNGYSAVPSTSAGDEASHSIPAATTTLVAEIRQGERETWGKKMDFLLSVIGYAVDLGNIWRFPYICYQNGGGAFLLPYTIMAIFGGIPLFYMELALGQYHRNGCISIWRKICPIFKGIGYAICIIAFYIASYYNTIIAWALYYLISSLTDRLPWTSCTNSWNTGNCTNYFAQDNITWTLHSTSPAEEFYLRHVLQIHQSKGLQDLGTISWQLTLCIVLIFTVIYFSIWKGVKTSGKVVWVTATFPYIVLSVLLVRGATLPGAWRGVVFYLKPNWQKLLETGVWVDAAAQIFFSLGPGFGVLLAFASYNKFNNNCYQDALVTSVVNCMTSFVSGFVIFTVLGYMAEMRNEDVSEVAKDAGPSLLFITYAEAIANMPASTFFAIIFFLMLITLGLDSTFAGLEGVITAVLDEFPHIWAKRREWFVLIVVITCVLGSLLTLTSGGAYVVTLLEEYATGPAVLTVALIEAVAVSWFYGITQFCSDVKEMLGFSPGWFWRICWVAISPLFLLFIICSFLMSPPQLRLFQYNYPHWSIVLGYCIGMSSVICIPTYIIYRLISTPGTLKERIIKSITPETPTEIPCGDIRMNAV
Protocol: Briefly, frontal cortical membranes prepared from male Sprague-Dawley rats were incubated with ^3 H-paroxetine (0.1 nM) for 60 min at 25° C. All tubes also contained either vehicle, test compound (one to eight concentrations), or a saturating concentration of fluoxetine (10 μM) to define […]. All reactions are terminated by the addition of ice cold Tris buffer followed by rapid filtration using a Tom Tech filtration device to separate bound from free ^3 H-paroxetine.

[3] = target: T3, 5-HT1A cloned receptor (Homo sapiens, UniProt P08908); test: [35S]-GTPγS binding assay, 5-HT1A cloned receptor membranes; format: biochemical; conditions: maximum agonist response defined by excess 8-OH-DPAT
T3 construct: expressed in transfected cells
T3 sequence (P08908 1-422): T1 sequence (P08908 1-422)
Excerpt: as §1
The [^35 S]-GTPγS binding assay was similar to that used by Lazareno and Birdsall, Br. J. Pharmacol. 109:1120 (1993). Briefly, 5-HT1A cloned receptor membrane fragments (as used for 5-HT1A receptor binding assays) were stored at -70° C. until needed. When needed, membranes were rapidly thawed, centrifuged at 40,000×g for 10 minutes and resuspended at 4° C. for 10 minutes in assay buffer ([…], 3 mM MgCl2, 100 mM NaCl, 1 mM EDTA, 10 uM GDP, […], pH 8.0). These membranes were then incubated for 30 min at 30° C. with [^35 S]GTPgS (1 nM) in the presence of vehicle, test compound (one to eight concentrations), or excess 8-OH-DPAT to define maximum agonist response. All reactions are terminated by the addition of ice cold Tris buffer followed by rapid filtration using a Tom Tech® filtration device to separate bound from free [^35 S]GTPgS. […] Bound radioactivity was counted and analyzed as above.

Row | SMILES | inhibition at 0.01 µM [1] [%] | inhibition at 1 µM [1] [%] | further results
1 | COc1ccccc1OCCNCC1CCC(c2c[nH]c3ccc(C#N)cc23)CC1 (centres unmarked) [Example 10b, 3-(4-{[2-(Methoxy-phenoxy)-ethylamino]-methyl}-cyclohexyl)-1H-indole-5-carbonitrile] | 7 |  | 
2 | Fc1cc2c(c(OCCN[C@H]3CC[C@@H](c4c[nH]c5ccc(F)cc54)CC3)c1)OCCC2 [Example 5a, [2-(6-Fluoro-chroman-8-yloxy)-ethyl]-[(1,4-cis)-4-(5-fluoro-1H-indol-3-yl)-cyclohexyl]-amine] |  | 49 | 
3 | N#Cc1ccc2[nH]cc([C@H]3CC[C@@H](NCCOc4cc(F)cc5c4OCC5)CC3)c2c1 [Example 6a] |  | 49 | 
4 | COc1cc(S(C)(=O)=O)c(F)cc1OCCN[C@H]1CC[C@H](c2c[nH]c3ccc(F)cc32)CC1 [Example 12, [(1,4-trans)-4-(5-Fluoro-1H-indol-3-yl)-cyclohexyl]-[2-(5-fluoro-4-methanesulfonyl-2-methoxy-phenoxy)-ethyl]-amine] | 0 |  | 
5 | COc1ccccc1OCCNC[C@H]1CC[C@H](c2c[nH]c3ccc(F)cc32)CC1 [Example 10a, [(1,4-trans)-4-(5-Fluoro-1H-indol-3-yl)-cyclohexylmethyl]-[2-(2-methoxy-phenoxy)-ethyl]-amine] |  |  | Ki [2]: 7.33 nM; Ki [1]: 26.8 nM; Emax [3]: 60%
6 | COc1cc(F)c(F)cc1OCCN[C@H]1CC[C@@H](c2c[nH]c3ccc(F)cc32)CC1 [Example 11a, (1,4-cis)-[2-(4,5-Difluoro-2-methoxy-phenoxy)-ethyl]-[4-(5-fluoro-1H-indol-3-yl)-cyclohexyl]-amine] | 0 |  | 
7 | OC1(CNCCOc2cccc3[nH]ccc23)CCC(c2c[nH]c3ccc(F)cc23)CC1 (centres unmarked) [Example 13, (1,4)-4-(5-Fluoro-1H-indol-3-yl)-1-{[2-(1H-indol-4-yloxy)-ethylamino]-methyl}-cyclohexanol] |  |  | Ki ([1]; [3H]8-OH-DPAT 1.5 nM, 30 minutes, room temperature, read-out: 5-HT1A (Ki)): 257 nM
8 | COc1cc(F)ccc1OCCN[C@H]1CC[C@@H](c2c[nH]c3ccc(F)cc32)CC1 [Example 9a, [(1,4-cis)-4-(5-Fluoro-1H-indol-3-yl)-cyclohexyl]-[2-(4-fluoro-2-methoxy-phenoxy)-ethyl]-amine] | 16 |  | 
9 | Cn1cc([C@H]2CC[C@@H](NCCOc3cc(F)cc4c3OCCC4)CC2)c2cc(C#N)ccc21 [Example 5c, 3-{(1,4-cis)-4-[2-(6-Fluoro-chroman-8-yloxy)-ethylamino]-cyclohexyl}-1-methyl-1H-indole-5-carbonitrile] |  | 47 | 

— patent US6110956A, “N-aryloxyethylamine derivatives for the treatment of depression” (American Home Products Corp., priority 1999, dated 2000)
